Source: ChEMBL document CHEMBL1909046, “DrugMatrix in vitro pharmacology data”

Columns and labels:
[1] = target: T1, Muscarinic acetylcholine receptor M5 (Homo sapiens, UniProt P08912); assay type: cell membranes, Membrane; settings: cho-k1; further: in other assays of this panel Not Active means under 50% inhibition at 10 µM
T1 sequence (P08912 whole entry): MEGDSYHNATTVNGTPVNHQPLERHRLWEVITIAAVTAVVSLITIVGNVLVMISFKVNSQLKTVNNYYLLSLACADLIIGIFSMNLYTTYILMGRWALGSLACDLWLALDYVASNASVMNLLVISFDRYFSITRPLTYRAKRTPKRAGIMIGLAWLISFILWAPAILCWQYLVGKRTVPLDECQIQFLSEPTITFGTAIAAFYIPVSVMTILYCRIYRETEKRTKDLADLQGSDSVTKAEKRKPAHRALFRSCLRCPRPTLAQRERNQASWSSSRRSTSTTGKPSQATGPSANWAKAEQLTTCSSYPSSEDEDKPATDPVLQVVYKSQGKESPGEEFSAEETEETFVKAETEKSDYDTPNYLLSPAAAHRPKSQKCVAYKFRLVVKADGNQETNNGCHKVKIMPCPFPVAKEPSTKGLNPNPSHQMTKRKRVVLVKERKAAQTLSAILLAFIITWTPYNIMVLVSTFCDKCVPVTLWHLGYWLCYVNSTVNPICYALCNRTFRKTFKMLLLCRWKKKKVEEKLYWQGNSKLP

[2] = target: Epidermal growth factor receptor (Homo sapiens, UniProt P00533); assay: DRUGMATRIX: Protein Tyrosine Kinase, EGF Receptor enzyme inhibition (substrate: Poly(Glu:Tyr)); assay type: cell-based, Insect cells; settings: Not Active = under 50% inhibition at 10 µM
[3] = DRUGMATRIX: Imidazoline I2, Central radioligand binding (ligand: [3H] Idazoxan); assay type: cell membranes, Rattus norvegicus, Wistar, Cerebral cortex, Membrane; settings: Not Active = under 50% inhibition at 10 µM
[4] = target: T2, Muscarinic acetylcholine receptor M2 (Homo sapiens, UniProt P08172); assay type: cell membranes, CHO-K1, Membrane; settings: cho-k1; further: in other assays of this panel Not Active means under 50% inhibition at 10 µM
T2 sequence (P08172 whole entry): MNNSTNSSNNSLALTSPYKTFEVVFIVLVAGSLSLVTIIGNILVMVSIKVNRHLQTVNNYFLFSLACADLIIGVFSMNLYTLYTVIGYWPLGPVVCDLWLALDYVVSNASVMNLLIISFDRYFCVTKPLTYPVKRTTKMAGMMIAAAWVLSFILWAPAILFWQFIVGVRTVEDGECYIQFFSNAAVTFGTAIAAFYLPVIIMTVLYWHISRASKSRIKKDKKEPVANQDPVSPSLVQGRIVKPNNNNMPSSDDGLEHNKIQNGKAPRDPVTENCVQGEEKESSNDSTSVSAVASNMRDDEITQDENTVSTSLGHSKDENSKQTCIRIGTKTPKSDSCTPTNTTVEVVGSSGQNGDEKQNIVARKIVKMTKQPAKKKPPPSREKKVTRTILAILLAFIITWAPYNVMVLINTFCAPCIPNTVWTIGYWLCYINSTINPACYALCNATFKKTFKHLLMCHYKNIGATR

Cytochrome P450 2C9 = Cytochrome P450 2C9 (Homo sapiens, UniProt P11712); settings: bti-tn-5b1-4; further: in other assays of this panel Not Active means under 50% inhibition at 10 µM
Adenosine receptor A2a = Adenosine receptor A2a (Homo sapiens, UniProt P29274); assay: DRUGMATRIX: Adenosine A2A radioligand binding (ligand: […]); assay type: cell membranes, HEK293, Membrane; settings: Not Active = under 50% inhibition at 10 µM
Adenosine receptor A2a, sequence (P29274 whole entry): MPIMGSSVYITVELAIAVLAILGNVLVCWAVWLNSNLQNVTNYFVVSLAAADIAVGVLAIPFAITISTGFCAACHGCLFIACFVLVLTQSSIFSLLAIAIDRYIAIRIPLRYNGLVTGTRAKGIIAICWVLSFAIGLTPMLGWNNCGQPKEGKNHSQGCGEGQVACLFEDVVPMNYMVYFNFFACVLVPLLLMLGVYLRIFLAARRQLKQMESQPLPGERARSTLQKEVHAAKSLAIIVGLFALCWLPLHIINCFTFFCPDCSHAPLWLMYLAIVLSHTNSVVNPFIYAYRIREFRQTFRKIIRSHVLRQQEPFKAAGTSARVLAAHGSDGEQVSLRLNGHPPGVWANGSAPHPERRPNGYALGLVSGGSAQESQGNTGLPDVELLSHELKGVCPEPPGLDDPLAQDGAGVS

Cytochrome P450 2C9, sequence (P11712 whole entry): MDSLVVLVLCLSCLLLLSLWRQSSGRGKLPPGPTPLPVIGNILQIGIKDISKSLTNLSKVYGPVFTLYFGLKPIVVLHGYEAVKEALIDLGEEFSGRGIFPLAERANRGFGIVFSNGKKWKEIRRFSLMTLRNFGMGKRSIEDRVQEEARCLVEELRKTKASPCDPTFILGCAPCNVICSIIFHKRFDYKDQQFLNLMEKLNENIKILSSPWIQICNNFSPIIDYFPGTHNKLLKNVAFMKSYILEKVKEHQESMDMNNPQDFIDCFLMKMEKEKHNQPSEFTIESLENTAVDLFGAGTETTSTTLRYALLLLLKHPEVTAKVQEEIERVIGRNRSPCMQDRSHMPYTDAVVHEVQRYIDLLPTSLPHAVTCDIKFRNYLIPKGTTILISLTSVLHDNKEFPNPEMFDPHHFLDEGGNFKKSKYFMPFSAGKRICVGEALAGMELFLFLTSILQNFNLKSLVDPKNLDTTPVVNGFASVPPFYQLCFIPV

Compound	IC50 [1]	IC50 ([2]; insect cells)	IC50 [3]	Ki [3]	IC50 [4]	IC50 (Cytochrome P450 2C9)	Ki (Cytochrome P450 2C9)	IC50 (Adenosine receptor A2a; hek293)	IC50 ([2]; read-out: IC50)	IC50 (Adenosine receptor A2a; read-out: IC50)	Ki (Adenosine receptor A2a; read-out: Ki)	IC50 ([3]; read-out: IC50)	Ki ([3]; read-out: Ki)	Ki [1]	Ki ([2]; insect cells)	Ki [4]	Ki (Adenosine receptor A2a; hek293)
C[C@H](C(=O)O)c1cccc(C(=O)c2ccccc2)c1 [DEXKETOPROFEN]	Not Active	Not Active	Not Active	Not Active	Not Active	Not Active	Not Active	Not Active									
NC[C@@H]1O[C@H](O[C@H]2[C@@H](O)[C@H](O[C@@H]3[C@@H](O)[C@H](N)C[C@H](N)[C@H]3O[C@H]3O[C@H](CN)[C@@H](O)[C@H](O)[C@H]3N)O[C@@H]2CO)[C@H](N)[C@@H](O)[C@@H]1O [FRAMYCETIN]	Not Active	Not Active	Not Active	Not Active	Not Active	Not Active	Not Active	Not Active									
C[C@]12C/C(=C/O)C(=O)C[C@@H]1CC[C@@H]1[C@@H]2CC[C@@]2(C)[C@H]1CC[C@]2(C)O [OXYMETHOLONE]	Not Active	Not Active	Not Active	Not Active	Not Active	Not Active	Not Active	Not Active									
CCOC(=O)[C@H](CCc1ccccc1)N[C@@H](C)C(=O)N1Cc2ccccc2C[C@H]1C(=O)O	Not Active	Not Active	Not Active	Not Active	Not Active	Not Active	Not Active	Not Active									
C=C1/C(=C\C=C2/CCC[C@]3(C)[C@@H]([C@H](C)CCCC(C)C)CC[C@@H]23)C[C@@H](O)C[C@@H]1O [ALFACALCIDOL]	Not Active	Not Active	Not Active	Not Active	Not Active	Not Active	Not Active	Not Active									
CCCCC1C(=O)N(c2ccccc2)N(c2ccccc2)C1=O [PHENYLBUTAZONE]	Not Active	Not Active	Not Active	Not Active	Not Active	Not Active	Not Active	Not Active									
[N-]=[N+]=CC(=O)OC[C@H](N)C(=O)O [AZASERINE]	Not Active	Not Active	Not Active	Not Active	Not Active	Not Active	Not Active	Not Active									
O=C(/C=C/c1ccc(O)c(O)c1)OCCc1ccccc1 [CAFFEIC ACID PHENETHYL ESTER]	Not Active		Not Active	Not Active	Not Active	Not Active	Not Active	Not Active	1.01 µM								
OCCO [ETHYLENE GLYCOL]	Not Active	Not Active	Not Active	Not Active	Not Active	Not Active	Not Active	Not Active									
C[C@H]([C@](O)(Cn1cncn1)c1ccc(F)cc1F)S(C)(=O)=O [GENACONAZOLE]	Not Active	Not Active	Not Active	Not Active	Not Active	Not Active	Not Active	Not Active									
Nc1nc(N)nc(NC2CC2)n1 [CYROMAZINE]	Not Active	Not Active	Not Active	Not Active	Not Active	Not Active	Not Active	Not Active									
CC[C@H](C)C(=O)O[C@H]1C[C@H](O)C=C2C=C[C@H](C)[C@H](CC[C@@H](O)C[C@@H](O)CC(=O)O)[C@H]21 [PRAVASTATIN]	Not Active	Not Active	Not Active	Not Active	Not Active	Not Active	Not Active	Not Active									
CC(C)(C)c1ccc(S(=O)(=O)/C=C/C#N)cc1 [BAY-11-7085]	Not Active	Not Active	Not Active	Not Active	Not Active	Not Active	Not Active	Not Active									
CCC(=O)O[C@H]1[C@H](O[C@@H]2[C@@H](C)[C@H](O[C@H]3C[C@@](C)(OC)[C@@H](O)[C@H](C)O3)[C@@H](C)C(=O)O[C@H](CC)[C@@](C)(O)[C@H](O)[C@@H](C)C(=O)[C@H](C)C[C@@]2(C)O)O[C@H](C)C[C@@H]1N(C)C [ERYTHROMYCIN PROPIONATE]	Not Active	Not Active	Not Active	Not Active	Not Active	Not Active	Not Active	Not Active									
C#C[C@]1(O)CC[C@H]2[C@@H]3CCc4cc(O)ccc4[C@H]3CC[C@@]21C [ETHINYL ESTRADIOL]	Not Active	Not Active	Not Active	Not Active	Not Active	Not Active	Not Active			20.9 µM	11.8 µM						
Nc1nc(Cl)nc2c1ncn2[C@H]1C[C@H](O)[C@@H](CO)O1 [CLADRIBINE]	Not Active	Not Active	Not Active	Not Active	Not Active	Not Active	Not Active	Not Active									
CC(C)(Sc1cc(C(C)(C)C)c(O)c(C(C)(C)C)c1)Sc1cc(C(C)(C)C)c(O)c(C(C)(C)C)c1 [PROBUCOL]	Not Active	Not Active	Not Active	Not Active	Not Active	Not Active	Not Active	Not Active									
CN1C[C@H](C(=O)N[C@]2(C)O[C@@]3(O)[C@@H]4CCCN4C(=O)[C@H](Cc4ccccc4)N3C2=O)C[C@@H]2c3cccc4[nH]cc(c34)C[C@H]21 [DIHYDROERGOTAMINE]	Not Active	Not Active			Not Active	Not Active	Not Active	Not Active				0.0025 µM	0.00167 µM				
CC(CCc1ccc(O)cc1)NCCc1ccc(O)c(O)c1 (stereo not given) [DOBUTAMINE]	Not Active		Not Active	Not Active	Not Active	Not Active	Not Active	Not Active	5.55 µM								
POLYVINYL ALCOHOL	Not Active	Not Active	Not Active	Not Active	Not Active	Not Active	Not Active	Not Active						Not Active	Not Active	Not Active	Not Active
CS(=O)(=O)OCCCCOS(C)(=O)=O [BUSULFAN]	Not Active	Not Active	Not Active	Not Active	Not Active	Not Active	Not Active	Not Active									
CC[C@H]1OC(=O)[C@H](C)[C@@H](O[C@H]2C[C@@](C)(OC)[C@@H](O)[C@H](C)O2)[C@H](C)[C@@H](O[C@@H]2O[C@H](C)C[C@H](N(C)C)[C@H]2O)[C@](C)(O)C[C@@H](C)CN(C)[C@H](C)[C@@H](O)[C@]1(C)O [AZITHROMYCIN]	Not Active	Not Active	Not Active	Not Active	Not Active	Not Active	Not Active	Not Active									
CC(=O)OCC(CCn1cnc2cnc(N)nc21)COC(C)=O [FAMCICLOVIR]	Not Active	Not Active	Not Active	Not Active	Not Active	Not Active	Not Active	Not Active									
Cc1c(F)c(N2CCNC(C)C2)cc2c1c(=O)c(C(=O)O)cn2C1CC1 (stereo not given) [GREPAFLOXACIN]	Not Active	Not Active	Not Active	Not Active	Not Active	Not Active	Not Active	Not Active									
CC(C(=O)O)c1ccc(-c2ccccc2)c(F)c1 (stereo not given) [FLURBIPROFEN]	Not Active	Not Active	Not Active	Not Active	Not Active	Not Active	Not Active	Not Active									
